US8481495B2 (TetraLogic Pharmaceuticals Corporation, priority 2009, dated 2013)

What was measured:
cIAP-1 BIR-3 = target: T1, cIAP-1 BIR-3 (Homo sapiens, UniProt Q13490); test: Fluorescence polarization binding to cIAP-1 BIR-3 with labeled peptide AbuRPF-K(5-Fam)-NH2; conditions: cIAP-1 BIR-3, 40 nM BIR3, 5 nM labeled peptide, 15 min RT, pH 7.5; read-out: cIAP1, nM (binding affinity KD, as range)
T1 construct: 40 nM of the respective IAP BIR3
Experimental: (§1) The binding affinities of the compounds are reported as a KD value (μM). Briefly, various concentrations of test peptides were mixed with 5 nM of the fluorescently labeled peptide (i.e., a mutated N-terminal Smac peptide-AbuRPF-K(5-Fam)-NH2) and 40 nM of the respective IAP BIR3 for 15 min at RT in […] of 0.1M Potassium Phosphate buffer, pH 7.5 containing […] bovine g-globulin. Following incubation, the polarization values (mP) were measured on a Victor2V™ (available from PerkinElmer® Life Sciences) using a 485 nm excitation filter and a 520 nm emission filter. The reported binding affinities (KD values) are supplied as ranges (A=<0.1 μM, B=0.1 μM to 1 μM, C=>1 μM to 10 μM, D=>10 μM).

SK-OV-3 cells = test: MTT cell growth inhibition assay in ovarian cancer cell line SK-OV-3; format: cell-based; conditions: Homo sapiens, 72 hrs incubation, read-out: SKOV3, nM (CC50, concentration giving 50% cell survival, as range)
Experimental: Compounds of the invention also were tested for their ability to inhibit the growth of an ovarian cancer cell line, SK-OV-3. A known assay previously used for measuring cell growth (as described in Hansen, M. B., Nielsen, S. E., and Berg, K. (1989) J. Immunol. Methods 119, 203-210 and incorporated herein by reference in its entirety) was used. Briefly, SK-OV-3 cells are seeded in 96-well plates in McCoy's medium containing 10% fetal bovine serum albumin (5,000 per well) and incubated overnight at 37° C. The next day, test compounds are added at various concentrations (0.003-10 μM) and the plates are incubated at 37° C. for an additional 72 hrs. This incubation time was considered to be optimal for measuring inhibitory effects of the different compounds tested. 50 microliters of 5 mg/mL MTT reagent is added to each well and the plates are incubated at 37° C. for another three (3) hours. At the end of the three (3) hour incubation period, 50 microliters of DMSO is added to each well to dissolve cells and the optical density (OD) of the wells is measured with a microplate reader (Victor^2 1420™, Wallac, Finland) at 535 nm. Cell survival (CS) was calculated using the following equation: CS=(OD treated well/mean OD control wells)×100%.
The CC50 (reported in the following tables), is defined as the drug concentration that results in 50% cell survival (CS), and is derived by calculating the point where the dose-response curve crosses the 50% CS point using GraphPad Prism® graphing software. The reported CC50 values are supplied as ranges (A=<0.1 μM, B=0.1 μM to 1 μM, C=>1 μM to 10 μM, D=>10 μM).

XIAP BIR-3 = target: T2, XIAP BIR-3 (Homo sapiens, UniProt P98170); test: Fluorescence polarization binding to XIAP BIR-3 with labeled peptide AbuRPF-K(5-Fam)-NH2; conditions: XIAP BIR-3, 40 nM BIR3, 5 nM labeled peptide, 15 min RT, pH 7.5; read-out: XIAP, nM (binding affinity KD, as range)
T2 construct: 40 nM of the respective IAP BIR3
T2 sequence (P98170 241-356 limits assumed): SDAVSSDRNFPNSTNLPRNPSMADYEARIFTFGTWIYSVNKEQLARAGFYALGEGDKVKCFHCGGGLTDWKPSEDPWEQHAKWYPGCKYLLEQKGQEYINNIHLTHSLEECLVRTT
Experimental: as §1

T1 sequence (Q13490 253-363 limits assumed): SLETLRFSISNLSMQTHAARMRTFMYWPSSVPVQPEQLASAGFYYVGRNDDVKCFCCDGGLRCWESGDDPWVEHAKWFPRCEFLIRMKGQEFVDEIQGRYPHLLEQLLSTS

Kd (cIAP-1 BIR-3) [nM] | Kd (XIAP BIR-3) [nM] | SMILES | CC50 (SK-OV-3 cells) [nM]
< 100 | 100 to 1000 | CN[C@@H](C)C(=O)N[C@H](C(=O)N1CC[C@@H]2[C@H]1[C@@H](C(=O)N[C@@H]1CCc3ccccc31)CN2S(C)(=O)=O)C1CCCCC1 [Example 14, 4-[2-Cyclohexyl-2-(2-methylamino-propionylamino)-acetyl]-1-methanesulfonyl-octahydro-pyrrolo[3,2-b]pyrrole-3-carboxylic acid indan-1-ylamide] | < 100
< 100 | < 100 | CN[C@@H](C)C(=O)N[C@H](C(=O)N1CC[C@@H]2[C@H]1[C@@H](C(=O)NCc1ccc(F)cc1)CN2S(C)(=O)=O)C1CCCCC1 [Example 3, 4-[2-Cyclohexyl-2-(2-methylamino-propionylamino)-acetyl]-1-methanesulfonyl-octahydro-pyrrolo[3,2-b]pyrrole-3-carboxylic acid 4-fluoro-benzylamide] | < 100
< 100 | < 100 | CN[C@@H](C)C(=O)N[C@H](C(=O)N1CC[C@@H]2[C@H]1[C@@H](C(=O)Nc1ccc(F)cc1)CN2C(=O)CNC(=O)C(=O)NCC(=O)N1C[C@H](C(=O)Nc2ccc(F)cc2)[C@@H]2[C@H]1CCN2C(=O)[C@@H](NC(=O)[C@H](C)NC)C(C)(C)C)C(C)(C)C [Example 54, N,N′-Bis-{2-[4-[3,3-dimethyl-2-(2-methylamino-propionylamino)-butyryl]-3-(4-fluoro-phenylcarbamoyl)-hexahydro-pyrrolo[3,2-b]pyrrol-1-yl]-2-oxo-ethyl}-oxalamide] | < 100
< 100 | 100 to 1000 | CN[C@@H](C)C(=O)N[C@H](C(=O)N1CC[C@H]2NC[C@H](C(=O)Nc3ccccc3)[C@H]21)C1CCCCC1 [Example 31] | 100 to 1000
< 100 | < 100 | CN[C@@H](C)C(=O)N[C@H](C(=O)N1CC[C@@H]2[C@H]1[C@@H](C(=O)NCc1ccccc1)CN2S(C)(=O)=O)C(C)(C)C [Example 20, 4-[3,3-Dimethyl-2-(2-methylamino-propionylamino)-butyryl]-1-methanesulfonyl-octahydro-pyrrolo[3,2-b]pyrrole-3-carboxylic acid benzylamide] | < 100
< 100 | < 100 | CNC(=O)N1C[C@H](C(=O)N[C@@H]2CCCc3ccccc32)[C@@H]2[C@H]1CCN2C(=O)[C@@H](NC(=O)[C@H](C)NC)C(C)(C)C [Example 40, 4-[3,3-Dimethyl-2-(2-methylamino-propionylamino)-butyryl]-hexahydro-pyrrolo[3,2-b]pyrrole-1,3-dicarboxylic acid 1-methylamide 3-[(1,2,3,4-tetrahydro-naphthalen-1-yl)-amide]] | < 100
< 100 | < 100 | CN[C@@H](C)C(=O)N[C@H](C(=O)N1CC[C@@H]2[C@H]1[C@@H](C(=O)NC(c1ccccc1)c1ccccc1)CN2S(C)(=O)=O)C1CCCCC1 [Example 6, 4-[2-Cyclohexyl-2-(2-methylamino-propionylamino)-acetyl]-1-methanesulfonyl-octahydro-pyrrolo[3,2-b]pyrrole-3-carboxylic acid benzhydryl-amide] | 100 to 1000
< 100 | < 100 | CN[C@@H](C)C(=O)N[C@H](C(=O)N1CC[C@@H]2[C@H]1[C@@H](C(=O)N[C@@H]1CCCc3ccccc31)CN2C(C)=O)C1CCCCC1 [Example 36, 1-Acetyl-4-[2-cyclohexyl-2-(2-methylamino-propionylamino)-acetyl]-octahydro-pyrrolo[3,2-b]pyrrole-3-carboxylic acid (1,2,3,4-tetrahydro-naphthalen-1-yl)-amide] | < 100
< 100 | < 100 | CN[C@@H](C)C(=O)N[C@H](C(=O)N1CC[C@@H]2[C@H]1[C@@H](C(=O)N[C@@H]1CCCc3ccccc31)CN2S(C)(=O)=O)C(C)(C)C [Example 27, 4-[3,3-Dimethyl-2-(2-methylamino-propionylamino)-butyryl]-1-methanesulfonyl-octahydro-pyrrolo[3,2-b]pyrrole-3-carboxylic acid (1,2,3,4-tetrahydro-naphthalen-1-yl)-amide] | < 100
< 100 | 100 to 1000 | CN[C@@H](C)C(=O)N[C@H](C(=O)N1CC[C@@H]2[C@H]1[C@@H](C(=O)Nc1cnc3ccccc3c1)CN2S(C)(=O)=O)C(C)(C)C [Example 51, 4-[3,3-Dimethyl-2-(2-methylamino-propionylamino)-butyryl]-1-methanesulfonyl-octahydro-pyrrolo[3,2-b]pyrrole-3-carboxylic acid quinolin-3-ylamide] | < 100

More lines, now with the values behind:

SMILES | Kd (cIAP-1 BIR-3) [nM] | Kd (XIAP BIR-3) [nM] | CC50 (SK-OV-3 cells) [nM]
CNC(C)C(=O)NC(C(=O)N1CCC2C1C(C(=O)NC1CCCc3ccccc31)CN2C(=O)C1CC1)C1CCCCC1 (stereo not drawn) [Example 33, 4-[2-Cyclohexyl-2-(2-methylamino-propionylamino)-acetyl]-1-cyclopropanecarbonyl-octahydro-pyrrolo[3,2-b]pyrrole-3-carboxylic acid (1,2,3,4-tetrahydro-naphthalen-1-yl)-amide] | < 100 | < 100 | < 100
CN[C@@H](C)C(=O)N[C@H](C(=O)N1CC[C@@H]2[C@H]1[C@@H](C(=O)Nc1ccc3ccccc3c1)CN2S(C)(=O)=O)C1CCCCC1 [Example 18, 4-[2-Cyclohexyl-2-(2-methylamino-propionylamino)-acetyl]-1-methanesulfonyl-octahydro-pyrrolo[3,2-b]pyrrole-3-carboxylic acid naphthalen-2-ylamide] | < 100 | 100 to 1000 | < 100
CN[C@@H](C)C(=O)N[C@H](C(=O)N1CC[C@@H]2[C@H]1[C@@H](C(=O)NCc1ccc(F)cc1)CN2S(C)(=O)=O)C(C)(C)C [Example 21, 4-[3,3-Dimethyl-2-(2-methylamino-propionylamino)-butyryl]-1-methanesulfonyl-octahydro-pyrrolo[3,2-b]pyrrole-3-carboxylic acid 4-fluoro-benzylamide] | < 100 | < 100 | < 100
CN[C@@H](C)C(=O)N[C@H](C(=O)N1CC[C@@H]2[C@H]1[C@@H](C(=O)N[C@H](C)C1CCCCC1)CN2S(C)(=O)=O)C(C)(C)C [Example 29, 4-[3,3-Dimethyl-2-(2-methylamino-propionylamino)-butyryl]-1-methanesulfonyl-octahydro-pyrrolo[3,2-b]pyrrole-3-carboxylic acid (1R-cyclohexyl-ethyl)-amide] | < 100 | 1000 to 10000 | 1000 to 10000
CN[C@@H](C)C(=O)N[C@H](C(=O)N1CC[C@@H]2[C@H]1[C@@H](C(=O)Nc1cccc3ccccc13)CN2S(C)(=O)=O)C(C)(C)C [Example 24, 4-[3,3-Dimethyl-2-(2-methylamino-propionylamino)-butyryl]-1-methanesulfonyl-octahydro-pyrrolo[3,2-b]pyrrole-3-carboxylic acid naphthalen-1-ylamide] | < 100 | < 100 | < 100
CN[C@@H](C)C(=O)N[C@H](C(=O)N1CC[C@@H]2[C@H]1[C@@H](C(=O)Nc1ccc3ccccc3c1)CN2S(C)(=O)=O)C(C)(C)C [Example 25, 4-[3,3-Dimethyl-2-(2-methylamino-propionylamino)-butyryl]-1-methanesulfonyl-octahydro-pyrrolo[3,2-b]pyrrole-3-carboxylic acid naphthalen-2-ylamide] | < 100 | < 100 | < 100
CN[C@@H](C)C(=O)N[C@H](C(=O)N1CC[C@@H]2[C@H]1[C@@H](C(=O)Nc1cccc3ccccc13)CN2C(C)=O)C(C)(C)C [Example 37, 1-Acetyl-4-[3,3-dimethyl-2-(2-methylamino-propionylamino)-butyryl]-octahydro-pyrrolo[3,2-b]pyrrole-3-carboxylic acid naphthalen-1-ylamide] | < 100 | < 100 | < 100
